Legend:
[1] = Single dose oral tolerance in rats; type: in vivo, rat (male weaning Sprague-Dawley); settings: single dose 2.5 or 0.75 g/kg in 5% CMC, 7 days
Method: To test for tolerance of the administered compounds, male weaning Sprague-Dawley rats were fed in a single dose of 2.5 or 0.75 g/kg of TMF-12, TMF-10, TMC-10 or TPC-10 in 5% carboxymethyl cellulose (CMC) or CMC alone. […] At completion of the 7 day observation period, necropsies were performed on all animals.

[2] = system: ear weight gain produced by multiple doses of TPA in mice; assay: Chronic (multiple dose) TPA mouse ear inflammation assay, ear weight gain; type: in vivo, mouse (female CD-1)
Method: The acute skin inflammation model described in Example 1, tests the ability of a compound to prevent inflammation and thus must be applied prophylactically. Most clinical situations, however, are present as chronic inflammatory conditions. […] The effects of the compounds of the present invention and Salifluor on chronically inflamed skin was measured in the mouse ear model that utilizes multiple TPA doses over a 10-day period to produce the inflammatory response.
The assay used female CD-1 mice (7-9 weeks of age). Following a 2-week quarantine, mice were randomly assigned to test groups (5 mice/groups). TPA (10 uL of 0.01 TPA in acetone) was administered to both the inner and outer surface of each ear (2μg/ear) on day 0,2,4,7, and 9 on protocol. On Day 7,8 and 9, two applications of test article were applied to each ear 2 and 4 hours after dosing with TPA. The test articles were administered in 10 uL aliquots to both the inner and outer surface of each ear (20 μl total/dose). […] Hydrocortisone-17-valerate (HCV, 20μg/ear) was employed as a positive control. Mice were sacrificed at Day 10 on protocol and uniform punch biopsies (approximately 8 mm dia.) were taken from each ear. While on protocol, dermal irritation was scored semiquantitatively at Day 1,3,5,8, and 10.
Inhibition of TPA stimulated increased ear weight was used as an initial measure of efficacy for all of the agents tested. One biopsy from each mouse was also quick frozen and stored at -70° C. for later assay of myleoperoxidase, an enzyme associated with infiltrating PMN, or other measure of efficacy. The remaining biopsy from each mouse treated with Trifluorosal or HCV was fixed in formalin and processed for histopathologic evaluation, including measurement of cellular infiltration (PMNs, endothelial cells, macrophages) and epidermal thickness at 20 random sites along the length of the specimen.
Initially, a dose-response curve for multiple doses of TPA to produce mouse ear weight gain was generated in order to determine the concentration of TPA to be employed in the inhibition studies. […] Another major difference between the multiple TPA dose (or chronic assay for inflammation) and the single TPA dose (or acute assay for inflammation) in the mouse ear is sensitivity to Non-steroidal antiinflammatory drugs (NSAIDs) and antihistamines.

[3] = Solubility of representative compounds in various solvent systems; type: physicochemical
Method: The solubility of representative compounds of this invention in various solvent systems was determined. The solvents included ethanol, propylene glycol, SLS, Tween 80™ and combinations thereof.

CCCCCCCCCCCCS(=O)(=O)c1ccc(O)c(C(=O)Nc2cccc(C(F)(F)F)c2)c1 [TMF-12]
Illness or deaths [1]: No illness or deaths occurred | Inhibition of ear weight gain ([2]; 500μg/ear, first experiment): 28% | Inhibition of ear weight gain ([2]; 1.25 mg/ear): 37.5% | Inhibition of ear weight gain ([2]; 2.5 mg/ear): 27.3% | Inhibition of ear weight gain ([2]; 5.0 mg/ear (printed 'mc/ear' for Trifluorosal)): 34.4% | Activity in chronic assay (in words) ([2]; 1.25-5 mg/ear, remaining experiments): demonstrated consistent activity | % Inhibition of Ear Weight Gain, Actual ([2]; multiple doses of TPA): 37.3% | % Inhibition of Ear Weight Gain, Relative to Hydrocortisone (HCV) = 100% ([2]; multiple doses of TPA, head prints 1.25 eg/ear): 61.8% | solubility ([3]; +0.5% tween 80): 1340 µg/mL | solubility ([3]; +1% sls): 1660 µg/mL | solubility ([3]; +1.5% tween 80): 4290 µg/mL | solubility ([3]; +2% SLS + 0.5% Tween 80): 3540 µg/mL | solubility ([3]; +2% SLS + 1.0% Tween 80): 4010 µg/mL | solubility ([3]; +2% SLS + 2.0% Tween 80): 5860 µg/mL | solubility ([3]; +2% sls): 2930 µg/mL | solubility ([3]; +3.0% tween 80): 8340 µg/mL | solubility ([3]; +4% sls): 5740 µg/mL | solubility ([3]; aqueous buffer, pH 10 Na-buffer @ 22° C.): < 0.1 µg/mL | Solubility in anionic and nonionic surfactant solutions relative to AMCF3-8 ([3]; compared with AMCF3-8): greater solubility than AMCF3-8 | solubility ([3]; organic solvent or mixture, Ethanol, 22° C.): 13600 µg/mL | solubility ([3]; organic solvent or mixture, Propylene Glycol @ 20° C.): 6660 µg/mL | solubility ([3]; ph 10 na-buffer +0.5% sls, pH 10 Na-buffer @ 22° C. +0.5% SLS): 1280 µg/mL
